In US20100178316A1, “EXTENDED RELEASE OF BIOACTIVE MOLECULES FROM SILICONE HYDROGELS” (priority 2007, published 2010):

How the values were obtained:
Format in all cases: physicochemical
[1] = Packaging test: drug lost from drug-loaded silicone hydrogel to PBS packaging solution; conditions: 0.1 mm thick GEL1, 1.75 cm diameter, loaded from drug-ethanol solution
Description: (§1) Commercial contact lenses are typically packaged in about 1-1.5 ml of packaging solution such as PBS. To estimate the effects of packaging on drug release behavior of silicone hydrogel appliances, packaging tests were conducted. A 0.1 mm thick silicone hydrogel was cut into circular pieces of 1.75 cm diameter and a drug was loaded by soaking the silicone hydrogel in a drug-ethanol solution. A 0.1 mm thick piece of GEL1 was loaded with a drug by soaking in drug-ethanol solution of 6.4 mg/ml for timolol and 4.8 mg/ml for DXA. The GEL1 pieces were then blotted with wipes to remove excess drug-ethanol solution from the pieces. The pieces were dried in air overnight before conducting the packaging tests. The silicone hydrogels were then stored in 1 ml of PBS (packaging) solution in a sealed vials for 1.3 or 2 months, and subsequently the appliance was placed in 2 ml of fresh PBS solution. The release of the drug over time is plotted in FIG. 17 and FIG. 18 for timolol and DXA, respectively. For timolol, about 364 μg and 404 μg of drug were lost to the packaging solution for the appliance stored for 1.3 months and 2 months, respectively. The residual drug released into the fresh PBS solution at an average rate of 0.09 mg/(g of gel·day) for 20 days, and then at a lower rate for another 2 months as shown in FIG. 17. […]

[2] = Drug release experiments from ethanol-loaded silicone hydrogel pieces soaked in PBS; conditions: GEL1 to GEL4, 0.1-0.4 mm thick, loaded from 0.64 or 6.4 mg/mL ethanol solution
Description: Drugs were individually loaded into individual square pieces of the gels by soaking a gel in 2 or 2.5 mL of a drug-ethanol solution for a period of 3 hours. At the end of three hours the gel was taken out and excess drug-ethanol solution was blotted from the surface of the piece with wipes. The gels were dried in air overnight, and subsequently used for drug release experiments. Results of drug release experiment are given below for three drugs (dexamethasone (DX), dexamethasone acetate (DXA) and timolol) which were individually loaded into different gel pieces.
Drug release experiments were conducted by soaking the square shaped drug containing gel pieces, prepared as described in Example 1, in Dulbecco's phosphate buffered saline (PBS). The volume of the PBS was varied depending on the thickness of the gel to maintain a constant volume ratio of gel to PBS for all samples. The gels of 0.1 mm, 0.2 mm, and 0.4 mm thickness were soaked in 1.5 mL, 3 mL, 6 mL of PBS, respectively.
In like manner to Examples 1, 2 and 3, timolol release experiments were conducted with square pieces of the gels of three different thicknesses for the four different compositions prepared in Example 1 (GEL1 to GEL4), with two different drug loadings by varying the concentration of the drug-ethanol solution used. […]

[3] = Drug release into fresh PBS solution after packaging storage; conditions: 2 ml fresh PBS
Description: as §1

drug lost to the packaging solution ([1]; stored in 1 ml PBS for 1.3 months): about 364 μg
drug lost to the packaging solution ([1]; stored in 1 ml PBS for 2 months): ~404 µg
initial burst release (in words) [2]: initial burst is small in each system
further release at a lower rate, duration ([3]; 0.1 mm thick GEL1 after packaging, after the first 20 days): 2 months
average release rate of residual drug into fresh PBS solution ([3]; 0.1 mm thick GEL1 loaded from 6.4 mg/ml ethanol solution, after packaging, for 20 days): 0.09 mg/(g of gel·day)
Compound: CC(C)(C)NC[C@H](O)COc1nsnc1N1CCOCC1 [timolol]
release behaviour from gels into PBS (in words) [2]: all gels release timolol over a long period of time
